# Values joined by “and” are separate entries in the source; they are usually repeats but may differ in a detail not shown here. Equal entries are not always repeated. Where two headings read alike, the source gives them in different places.
# How the values were obtained:
# [1] = tested on: Alternaria alternate; experiment: in vitro-Test with fungal microorganisms, Method A (tables A1-A12); assay type: cell-based, Alternaria alternata; conditions: applied alone
# Method in brief: (§1)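 Growth inhibition was measured photometrically at 620 nm 3–5 days after application, with 100% efficacy meaning no growth and 0% meaning growth equal to the untreated control. Fungal spore or mycelium suspension in potato dextrose broth was added onto solvent-evaporated compound and incubated at 20° C and 85% relative humidity.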
# [2] = tested on: Botrytis cinerea; experiment: in vitro-Test with fungal microorganisms, Method A (tables B1-B14); assay type: cell-based
# Method in brief: as §1
# [3] = tested on: Cercospora beticola; experiment: in vitro-Test with fungal microorganisms, Method B (tables C11-C20); assay type: cell-based
# Method in brief: (§2)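 Cpd in MeOH + alkylaryl-polyglycol-ether, solvent evaporated; liquid medium + fungal spores/mycelium added; OD600 read; 3–7 d, 20° C., 85% RH; growth inhibition by photometry, % efficacy vs untreated ctrl.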
# [4] = tested on: Colletotrichum lindemuthianum; experiment: in vitro-Test with fungal microorganisms, Method A (tables D1-D8); assay type: cell-based
# Method in brief: as §1
# [5] = tested on: Cordana musae; experiment: in vitro-Test with fungal microorganisms, Method A (tables E1-E8); assay type: cell-based
# Method in brief: as §1
# [6] = tested on: Diaporthe citri; experiment: in vitro-Test with fungal microorganisms, Method A (tables F1-F11); assay type: cell-based
# Method in brief: as §1
# [7] = tested on: Diaporthe citri; experiment: in vitro-Test with fungal microorganisms, Method B (tables F12-F15); assay type: cell-based
# Method in brief: as §2
# [8] = tested on: Fusarium culmorum; experiment: in vitro-Test with fungal microorganisms, Method A (tables G1-G4); assay type: cell-based
# Method in brief: as §1
# [9] = tested on: Parastagonospora nodorum; experiment: in vitro-Test with fungal microorganisms, Method A (tables H1-H4); assay type: cell-based
# Method in brief: as §1
# [10] = tested on: Parastagonospora nodorum; experiment: in vitro-Test with fungal microorganisms, Method B (tables H5-H8); assay type: cell-based
# Method in brief: as §2
# [11] = tested on: Ustilago segetum var. avenae; experiment: in vitro-Test with fungal microorganisms, Method A (tables I1-I5); assay type: cell-based; conditions: alone
# Method in brief: as §1
# [12] = tested on: Colletotrichum coccodes; experiment: in vitro-Test with fungal microorganisms, Method B (tables J1-J11); assay type: cell-based
# Method in brief: as §2
# [13] = tested on: Alternaria alternata; experiment: in vitro-Test with fungal microorganisms, Method B (tables A13-A22); assay type: cell-based
# Method in brief: as §2
# [14] = tested on: Botrytis cinerea; experiment: in vitro-Test with fungal microorganisms, Method B (tables B15-B18); assay type: cell-based
# Method in brief: as §2
# [15] = tested on: Cercospora beticola; experiment: in vitro-Test with fungal microorganisms, Method A (tables C1-C10); assay type: cell-based
# Method in brief: as §1
# [16] = tested on: Fusarium culmorum; experiment: in vitro-Test with fungal microorganisms, Method B (tables G5-G15); assay type: cell-based; conditions: single active compound
# Method in brief: as §2
# [17] = tested on: Ustilago segetum var. avenae; experiment: in vitro-Test with fungal microorganisms, Method B (tables I6-I11); assay type: cell-based
# Method in brief: as §2
# [18] = Log P by HPLC on reversed phase columns (LC-UV), method [a]: acidic range, 0.1% formic acid in water / acetonitrile; assay type: physicochemical
# Experimental: Measurement of Log P Values
# Measurement of Log P values as provided herein was performed according to EEC directive 79/831 Annex V.A8 by HPLC (High Performance Liquid Chromatography) on reversed phase columns with the following methods: • ^[a]
# If more than one Log P value is available within the same method, all the values are given and separated by “+”.
# [19] = Colletotrichum coccodes, read-out: Efficacy %
# [20] = Colletotrichum coccodes, applied alone, read-out: Efficacy %
# [21] = method [a], acidic range (0.1% formic acid), Table 17, compounds of formula (10)
structure (smiles),measurement,setting,value
"CCCN(CC)CC1COC2(CCC(C(C)(C)C)CC2)O1 (centres unmarked) [(1.020) spiroxamine, spiroxamine]",inhibition of growth at 0.8 ppm,"[1]; Alternaria, 0.8 ppm, read-out: Efficacy %",18%
same,inhibition of growth at 4 ppm,"[1]; Alternaria, 4 ppm, read-out: Efficacy %",12%
same,inhibition of growth at 20 ppm,"[1]; Alternaria, 20 ppm, read-out: Efficacy %",16%
same,inhibition of growth at 0.8 ppm,"[2]; Botrytis cinerea, 0.8 ppm, read-out: Efficacy",0%
same,inhibition of growth at 4 ppm,"[2]; Botrytis cinerea, 4.0 ppm, read-out: Efficacy",0%
same,inhibition of growth at 20 ppm,"[2]; Botrytis cinerea, read-out: Efficacy",18%
same,inhibition of growth at 0.8 ppm,"[2]; Botrytis cinerea, alone, 0.8 ppm, read-out: Efficacy %",0%
same,inhibition of growth at 20 ppm,"[2]; Botrytis cinerea, alone, read-out: Efficacy %",14%
same,Efficacy %,"[2]; alone, 0.8 ppm",0%
same,inhibition of growth at 4 ppm,"[3]; Cercospora beticola, single compound, 4 ppm, read-out: Efficacy %",6%
same,inhibition of growth at 0.8 ppm,"[4]; Colletotrichum lindemuthianum, mixing partner alone, 0.8 ppm, read-out: Efficacy %",0%
same,inhibition of growth at 20 ppm,"[4]; Colletotrichum lindemuthianum, mixing partner alone, 20.0 ppm, read-out: Efficacy %",6%
same,inhibition of growth at 0.8 ppm,"[4]; Colletotrichum lindemuthianum, single active at 0.8 ppm, read-out: Efficacy %",0%
same,inhibition of growth at 4 ppm,"[4]; Colletotrichum lindemuthianum, single active at 4.0 ppm, read-out: Efficacy %",8%
same,inhibition of growth at 20 ppm,"[4]; Colletotrichum lindemuthianum, single active at 20.0 ppm, read-out: Efficacy %",0%
same,inhibition of growth at 20 ppm,"[5]; Neocordana musae, mixing partner alone, 20.0 ppm, read-out: Efficacy %",9%
same,Efficacy %,"[5]; mixing partner alone, 0.8 ppm",0%
same,inhibition of growth at 0.8 ppm,"[6]; Diaporthe citri, applied alone, 0.8 ppm, read-out: Efficacy",6%
same,inhibition of growth at 4 ppm,"[6]; Diaporthe citri, applied alone, 4.0 ppm, read-out: Efficacy",8%
same,inhibition of growth at 20 ppm,"[6]; Diaporthe citri, applied alone, 20.0 ppm, read-out: Efficacy",0%
same,Efficacy,"[7]; Table F15, 4 ppm alone",0%
same,Efficacy,"[7]; Table F15, 20 ppm alone",4%
same,Efficacy,"[8]; 4.0 ppm, alone",0%
same,inhibition of growth at 20 ppm,"[8]; Fusarium culmorum, 20.0 ppm, alone, read-out: Efficacy",0%
same,Efficacy,"[9]; single active compound, 0.8 ppm",2%
same,Efficacy,"[9]; single active compound, 4.0 ppm",4%
same,Efficacy,"[9]; single active compound, 20.0 ppm",7%
same,inhibition of growth at 0.8 ppm,"[10]; Parastagonospora nodorum, 0.8 ppm, read-out: Efficacy",5%
same,inhibition of growth at 4 ppm,"[10]; Parastagonospora nodorum, 4 ppm, read-out: Efficacy",5%
same,inhibition of growth at 20 ppm,"[10]; Parastagonospora nodorum, 20 ppm, read-out: Efficacy",17%
same,inhibition of growth at 0.8 ppm,"[11]; 0.8 ppm, read-out: Efficacy %",3%
same,inhibition of growth at 4 ppm,"[11]; 4.0 ppm, read-out: Efficacy %",71%
same,inhibition of growth at 20 ppm,"[11]; 20.0 ppm, read-out: Efficacy %",100%
same,inhibition of growth at 0.8 ppm,[12]; [19],0%
same,inhibition of growth at 4 ppm,"[12]; Colletotrichum coccodes, 4 ppm, read-out: Efficacy %",0%
same,inhibition of growth at 20 ppm,[12]; [19],0%
same,inhibition of growth at 0.8 ppm,[12]; [20],0%
same,inhibition of growth at 20 ppm,[12]; [20],39%
"CC(O)(Cn1cncn1)c1ccc(Oc2ccc(Cl)cc2)cc1C(F)(F)F (centres unmarked) [(1.055) mefentrifluconazole, mefentrifluconazole]",Efficacy %,[1]; 0.008 ppm,9%
same,Efficacy %,[1]; 0.04 ppm,58% and 32%
same,Efficacy %,[1]; 0.2 ppm,96% and 100%
same,Efficacy %,[1]; 1.0 ppm,100% and 99%
same,Efficacy,[13]; 0.008 ppm,9%
same,Efficacy,[13]; 0.04 ppm,19%
same,Efficacy,[13]; 0.2 ppm,91%
same,Efficacy,"[13]; single compound, 0.2 ppm",65%
same,Efficacy,"[13]; single compound, 1 ppm",99%
same,Efficacy,[2]; 0.008 ppm,0%
same,Efficacy,[2]; 0.04 ppm,37%
same,Efficacy,[2]; 0.2 ppm,78%
same,Efficacy %,"[2]; alone, 0.008 ppm",0%
same,Efficacy %,"[2]; alone, 0.04 ppm",0%
same,Efficacy %,"[2]; alone, 0.2 ppm",53%
same,Efficacy %,"[2]; alone, 1.0 ppm",100%
same,Efficacy %,[14]; 0.008 ppm alone,0%
same,Efficacy %,[14]; 0.04 ppm alone,0%
same,Efficacy %,[14]; 0.2 ppm alone,30%
same,Efficacy %,[15]; 0.008 ppm,12%
same,Efficacy %,[15]; 0.008 ppm alone,60% and 80%
same,Efficacy %,[15]; 0.04 ppm,100%
same,Efficacy %,[15]; 0.04 ppm alone,100% and 91%
same,Efficacy %,[15]; 0.2 ppm,100%
same,Efficacy %,[15]; 0.2 ppm alone,100%
same,Efficacy %,[15]; 1.0 ppm,100%
same,Efficacy %,[15]; 1.0 ppm alone,100%
same,Efficacy %,[3]; 0.008 ppm,24%
same,Efficacy %,[3]; 0.04 ppm,84%
same,Efficacy %,"[3]; single compound, 0.008 ppm",14%
same,Efficacy %,"[3]; single compound, 0.04 ppm",93%
same,Efficacy %,"[4]; mixing partner alone, 0.008 ppm",0%
same,Efficacy %,"[4]; mixing partner alone, 0.04 ppm",0%
same,Efficacy %,"[4]; mixing partner alone, 0.2 ppm",6%
same,Efficacy %,"[4]; mixing partner alone, 1.0 ppm",13%
same,Efficacy %,[4]; single active at 0.008 ppm,7% and 0%
same,Efficacy %,[4]; single active at 0.04 ppm,0% and 3%
same,Efficacy %,[4]; single active at 0.2 ppm,11%
same,Efficacy %,[4]; single active at 1.0 ppm,0%
same,Efficacy %,"[5]; single substance, 0.008 ppm",4%
same,Efficacy %,"[5]; single substance, 0.04 ppm",29%
same,Efficacy %,"[5]; single substance, 0.2 ppm",100%
same,Efficacy %,"[5]; single substance, 1.0 ppm",100%
same,Efficacy,"[6]; applied alone, 0.008 ppm",0%
same,Efficacy,"[6]; applied alone, 0.04 ppm",60% and 38%
same,Efficacy,"[6]; applied alone, 0.2 ppm",100%
same,Efficacy,"[6]; applied alone, 1.0 ppm",100%
same,Efficacy,"[6]; single active, 0.008 ppm",17%
same,Efficacy,"[6]; single active, 0.04 ppm",69%
same,Efficacy,"[6]; single active, 0.2 ppm",99%
same,Efficacy,"[6]; single active, 1.0 ppm",100%
same,Efficacy,"[7]; Table F14, 0.008 ppm alone",8%
same,Efficacy,"[7]; Table F14, 0.04 ppm alone",21%
same,Efficacy,"[7]; Table F14, 0.2 ppm alone",94%
same,Efficacy,"[7]; Table F14, 1 ppm alone",99%
same,Efficacy,"[8]; Table G1, 0.008 ppm alone",20%
same,Efficacy,"[8]; Table G1, 0.04 ppm alone",22%
same,Efficacy,"[8]; Table G1, 0.2 ppm alone",5%
same,Efficacy,"[8]; Table G1, 1.0 ppm alone",33%
same,Efficacy,[16]; 0.008 ppm,11% and 3%
same,Efficacy,[16]; 0.04 ppm,16% and 24%
same,Efficacy,[16]; 1 ppm,24% and 33%
same,Efficacy,[9]; 0.008 ppm,89%
same,Efficacy,[9]; 0.04 ppm,99%
same,Efficacy,[9]; 0.2 ppm,99%
same,Efficacy,[9]; 1.0 ppm,100%
same,Efficacy,"[9]; single active compound, 0.008 ppm",90%
same,Efficacy,"[9]; single active compound, 0.04 ppm",97%
same,Efficacy,"[9]; single active compound, 0.2 ppm",100%
same,Efficacy,"[9]; single active compound, 1.0 ppm",100%
same,Efficacy,[10]; 0.008 ppm,84%
same,Efficacy,[10]; 0.04 ppm,99%
same,Efficacy %,[11]; 0.008 ppm,0%
same,Efficacy %,[11]; 0.04 ppm,4%
same,Efficacy %,[11]; 0.2 ppm,100%
same,Efficacy %,[11]; 1.0 ppm,100%
same,Efficacy %,[17]; 0.008 ppm,4%
same,Efficacy %,[17]; 0.04 ppm,3%
same,Efficacy %,[17]; 0.2 ppm,41%
same,Efficacy %,[17]; 1 ppm,100%
same,Efficacy %,"[17]; alone, 0.2 ppm",53%
same,Efficacy %,"[17]; alone, 1 ppm",100%
same,Efficacy %,[12]; 0.008 ppm,0%
same,Efficacy %,[12]; 0.2 ppm,34%
same,Efficacy %,[12]; 1 ppm,100%
same,Efficacy %,[12]; single active compound at 0.2 ppm,22%
CON(C)C(=O)c1cc(Cl)nnc1Oc1cccc(C(F)(F)F)c1 [Compound 1-07],LogP,"[18]; method [a], acidic range (0.1% formic acid), Table 3, compounds of formula (1)",2.90^[a]
Cc1cc(C(=O)NC(CON2C(=O)c3ccccc3C2=O)Cc2ccc(C)c(C)c2)c(Oc2cccc(Cl)c2F)nn1 (centres unmarked) [Compound 3-45],LogP,"[18]; method [a], acidic range (0.1% formic acid), Table 7, compounds of formula (3)",4.42^[a]
COc1cccc(Oc2nnc(Cl)cc2C#N)c1 [Compound 9-08],chromatographic logP,"[18]; method [a], acidic range (0.1% formic acid), Table 15, compounds of formula (9)",2.75
N/C(=N\O)c1cc(Cl)nnc1Oc1cccc(Cl)c1 [Compound 10-04],chromatographic logP,[18]; [21],2
N/C(=N\O)c1cc(Cl)nnc1Oc1cccc(Br)c1F [Compound 10-05],chromatographic logP,[18]; [21],2.21
N/C(=N\O)c1cc(Cl)nnc1Oc1cccc(C2CC2)c1F [Compound 10-07],chromatographic logP,[18]; [21],2.34
N/C(=N\O)c1cc(Cl)nnc1Oc1cccc(C2CC2)c1 [Compound 10-08],chromatographic logP,[18]; [21],2.19
N/C(=N\O)c1cc(Cl)nnc1Oc1cccc(C(F)F)c1F [Compound 10-09],chromatographic logP,[18]; [21],1.91
Cc1ccc(CC(CCl)NC(=NO)c2cc(Cl)nnc2Oc2cccc(C(F)(F)F)c2)c(C)c1 (centres unmarked) [Compound 20-08],LogP,[18]; method [a],2.77^[a]
"FC(F)(F)c1cccc(Oc2nnc(Cl)cc2C2=NOC[C@H](Cc3ccccc3)N2)c1 [Compound I-070, (5S)-5-benzyl-3-[6-chloro-3-[3-(trifluoro-methyl)phenoxy]pyridazin-4-yl]-5,6-dihydro-4H-1,2,4-oxadiazine]",LogP,"[18]; method [a]: HPLC, acidic range, 0.1% formic acid in water / acetonitrile",3.81^[a]

# — US12653191B2, “Active compound combinations” (Bayer Aktiengesellschaft, priority 2020, dated 2026)
